The values that follow come from PubChem BioAssay (NCI).

Holding throughout (experiment): NCI-60 cell line screen, 48 h
For assay [1], the system named is MDA-N.
Assay [2] relates to DMS 114 small cell lung.
Assay [3] has as its system DMS 273 small cell lung.
Assay [4] deals with HOP-18 NSCLC.
Assay [5] deals with M19-MEL melanoma.
Assay [6] deals with SNB-78 CNS.
Assay [7] relates to DLD-1 colon.
Assay [8] concerns RXF-631 renal.
Assay [9] relates to XF 498 CNS.

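Compound exposure: 48 hours, 5 concentrations, 96-well plates. GI50 = concentration required for 50% inhibition of growth. Definition used: TGI = concentration required for complete inhibition of growth.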

For `COC(=O)C1OC(SCCN)C(O)C(O)C1O` (stereo not given), in assay [1], the TGI is greater than 100 µM.

In the case of `NC(CCSCCF)C(=O)O` (stereo not given), the TGI in assay [2], in assay [3], in [4], in [5] and in assay [6] was greater than 100 µM in each case.

Turning to `COC(=O)c1ccc(N/C=C(/C#N)c2ccsc2)cc1`, the TGI in assay [7] was greater than 100 µM; in assay [2], 43.8 µM; in assay [3], 37.4 µM; in assay [5] it was greater than 100 µM; in [6], 43.4 µM.

Consider `COc1cc2ccnc(-c3n[nH]c4cc(OC)c(OC)cc34)c2cc1OC`, for which the TGI in assay [2] is greater than 100 µM; in assay [3], greater than 100 µM; in assay [4] it was greater than 100 µM; in [5], greater than 100 µM; in [8], 93.4 µM; in assay [9], greater than 100 µM.

For the molecule `CCCCCCCCCCCc1cc(=O)c2c(O)cccc2o1`, the TGI in assay [7], in assay [2], in assay [3], in [4], in assay [5] and in assay [8] was greater than 100 µM throughout. Besides, the TGI in assay [6] and in [9] was greater than 100 µM throughout.

With `CC(=O)Nc1ccc(S(=O)(=O)N/N=C(\C)CN2C(=O)c3ccccc3C2=O)cc1`, the TGI in assay [7], in assay [3], in assay [4], in assay [5] and in assay [6] was greater than 100 µM throughout.

On to `CC(C)CCCC(C)[C@H]1CCC2C3CC=C4C[C@@H](OC(=O)CC(CC(=O)[O-])C(=O)[O-])CC[C@]4(C)C3CC[C@@]21C.N.N.[Pt+4]` (stereo not given in full), for which the GI50 in [3], in [4] and in [6] was greater than 100 µM in each case. In addition, the TGI in assay [3], in assay [4] and in assay [6] was greater than 100 µM throughout.

In the case of `O=C(CC(=O)c1cccc2ccccc12)C(=O)Nc1nccs1`, the TGI in assay [7], in [3], in assay [4], in [5] and in assay [6] was greater than 100 µM throughout.

With `CC/C(=N/O)C(C)C(=O)CCC(=O)Nc1ccc(Cl)cc1` (stereo not given), the TGI in [7], in assay [2], in [3], in assay [4], in assay [5] and in assay [6] was greater than 100 µM throughout. Also, in assay [9], the TGI was greater than 100 µM.

With `OCC(O)C(OC1OC(CO)C(O)C(O)C1O)c1nn(-c2ccc(Cl)cc2)c2nc3cc(Cl)c(Cl)cc3nc12` (stereo not given), the TGI in assay [7], in assay [2], in [5], in [6] and in assay [9] was greater than 100 µM throughout.

Turning to `NC(=S)N/N=C1/C(=O)N(c2ccccc2)C(=O)C1C(=O)Nc1ccccc1` (stereo not given), the TGI in assay [2], in [3], in [4], in [5], in assay [8] and in assay [6] was greater than 100 µM in each case. The same molecule returned a TGI in assay [9] greater than 100 µM.

For the molecule `CC(=O)NC(CCCCN(Cc1ccccc1)C(=O)N(C)N=O)C(=O)NCc1ccccc1` (stereo not given), the TGI in [7], in assay [2], in assay [3], in [5], in assay [8] and in [6] was greater than 100 µM throughout. Further, in assay [9], the TGI is greater than 100 µM.

Consider `COc1ccccc1C(=O)Nc1ccc(Cl)c(C(=O)OC(C)C)c1`, for which the TGI is 63.8 µM in [2]; greater than 100 µM in assay [3]; greater than 100 µM in [4]; greater than 100 µM in [5]; greater than 100 µM in assay [1]; greater than 100 µM in [8]. Besides, the results for the TGI in [6] and in [9] were greater than 100 µM and 54.7 µM, respectively.

`C=C(C)C1Cc2cc(C(C)=O)ccc2O1` (stereo not given) returned a TGI in assay [1] greater than 100 µM.

Take `[N-]=[N+]=Nc1nnc(CCCCc2nnc(N=[N+]=[N-])o2)o1`: the TGI in assay [7] was greater than 100 µM; in assay [2] it was greater than 100 µM; in assay [4] it was greater than 100 µM; in assay [5] it was greater than 100 µM; in assay [8], 58.1 µM; in [6], greater than 100 µM. Further, in assay [9], the TGI is greater than 100 µM.

In assay [1], `Cn1c(=O)c2[nH]c(CCS)nc2n(C)c1=O` displayed a TGI greater than 100 µM.

With `COc1ccc(C2C(C(=O)O)=C(CO)Oc3cc4c(cc32)OCO4)c(OC)c1` (stereo not given), the TGI in [7], in assay [2], in assay [3], in [4], in assay [5] and in [8] was greater than 100 µM each time. In addition, the TGI in assay [6] and in assay [9] was greater than 100 µM throughout.

On to `O=c1c2cc(Br)ccc2n(C2OC(CO)C(O)C(O)C2O)c(=S)n1-c1ccccc1` (stereo not given), for which the TGI in assay [7], in [2], in assay [4], in assay [5], in assay [6] and in assay [9] was greater than 100 µM throughout.

On to `Nc1ncnc2c1N=CN(Oc1ccccc1)N2`, for which the TGI in assay [7], in [2], in assay [3], in assay [5], in assay [8] and in assay [6] was greater than 100 µM in each case. Also, the TGI in [9] was greater than 100 µM.
